Experimental data taken from patent US20050154031A1, “5-Ht2b receptor antagonists” (priority 2002, published 2005).

Experiments:
[1] = molecular target: T1, cloned human 5-HT2A receptor (Homo sapiens, UniProt P28223); assay: Human 5-HT2A receptor binding assay ([3H]ketanserin); settings: membranes of CHO-K1 cells expressing cloned human 5-HT2A receptor, [3H]ketanserin 1 nM; read-out: 5-HT2A pKi (converted)
T1 construct: purchased Euroscreen; host or cells: CHO-K1
Method: (§1) Human 5-HT2A and 5-HT2C Receptor Binding Assays
(§2) The binding affinity of ligands for human 5-HT2A and 5-HT2C receptors was determined using the following assay.
Membrane preparations from CHO-K1 cells expressing the cloned human 5-HT2A receptor were obtained (Euroscreen). The membranes were thawed rapidly and diluted in assay buffer containing Tris-HCl (50 mM, pH 7.7). The membranes were resuspended by homogenisation, prior to adding 15 μg of membranes to assay wells containing [^3H] ketanserin (1 nM), assay buffer (50 mM Tris at pH 7.4) containing pargyline (10 μM), and test compounds (1×10^−10 to 1×10^−4M). Non specific binding was determined in the presence of 100 μM mianserin. After 15 minutes incubation at 37° C., the assay mixture was filtered through a combination of GF-C and GF-B filters, pre-soaked in 0.05% Brij, using a Brandel cell harvester, and were washed three times using ice cold Tris-HCl buffer (50 mM). Radioactivity retained on the filters was determined by liquid scintillation counting. For each test compound, the concentration that inhibited binding of [^3H]ketanserin by 50% was determined using curve fitting software (Prism). Kd values (concentration of ketanserin required to occupy 50% of the receptor binding sites at equlibrium)determined from saturation binding studies were then used to calculate inhibition dissociation constants (Ki) using the following equation: [formula]

[2] = molecular target: T2, human cloned 5-HT2B receptors (Homo sapiens, UniProt P41595); assay: Human cloned 5-HT2B cell-based functional assay (Fluo-4, block of 5-HT response); settings: CHO.K1 cells expressing cloned 5-HT2B receptor, inhibition of the 5-HT response
T2 construct: expressed in transfected cells; host or cells: CHO-K1
T2 sequence (P41595 whole entry): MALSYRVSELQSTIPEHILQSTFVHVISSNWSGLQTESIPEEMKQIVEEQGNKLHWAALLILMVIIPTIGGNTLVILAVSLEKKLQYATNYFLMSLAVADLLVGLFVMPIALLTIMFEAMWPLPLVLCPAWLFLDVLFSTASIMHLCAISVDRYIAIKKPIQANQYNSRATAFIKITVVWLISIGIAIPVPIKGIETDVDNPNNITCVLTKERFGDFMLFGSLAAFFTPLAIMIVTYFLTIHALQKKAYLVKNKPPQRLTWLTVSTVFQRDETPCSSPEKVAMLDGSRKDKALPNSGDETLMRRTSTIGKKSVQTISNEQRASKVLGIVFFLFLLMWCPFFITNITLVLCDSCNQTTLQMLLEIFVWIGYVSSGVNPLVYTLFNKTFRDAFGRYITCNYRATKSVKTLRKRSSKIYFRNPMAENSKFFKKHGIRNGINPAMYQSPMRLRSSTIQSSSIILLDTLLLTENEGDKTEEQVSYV
Method: Human Cloned […] Cell-Based Functional Assay The following describes an in vitro functional assay using human cloned 5-HT2B receptors to determine the ability of compounds to block the receptor. CHO.K1 cells expressing cloned 5-HT2B receptor were maintained In Ultra-CHO medium containing 400 μg/ml of G418, 100 U/ml penicillin, 100 μg/ml streptomycin, 2.5 μg/ml fungizone, in 95/5% O2/CO2 at 37° C. Ultra-CHO medium additionally supplemented with 1% foetal bovine serum was used when seeding the cells and removed after 5 hours. Cells were plated in Costar 96 well white, clear-bottomed plate at a density of 50,000 cells per well and incubated for at least 24 hours in 95/5% O2/CO2 at 37° C. before running the assay. Media was removed from the wells and 200 μl of 4 μM Fluo-4 AM added, this was incubated in a Wallace Victor 2V workstation at 37° C. for 30 minutes. The Fluo-4 AM was then removed from the wells, which were then washed twice with 200 μl of buffer (HBSS without calcium/magnesium/phenol red, 20 mM HEPES, 1 mM Ca^2+, 1 mM Mg^2+, 2.5 mM probenecid, pH to 7.4), 180 μl of buffer or test compound was added to the well and incubated for 30 minutes. The Victor 2V injectors were used to inject 20 μl of 5-HT after obtaining 10 0.1-second baseline readings at 535 nm, followed by 150 readings. All test compounds were aliquoted in 100% DMSO at 10 mM and diluted to 1 mM in 50% DMSO, subsequent dilutions were made using buffer. Buffer was also used to dilute the 5-HT. Data were analysed using Microsoft Excel and GraphPad Prism, with the latter used to produce sigmoidal dose-response curves for each compound. The compound concentration that inhibited the 5-HT response by 50% was taken (IC50−M), and the results are shown in Table 2, as pIC50, being the negative log (to the base 10) of the measured IC50 values.

[3] = molecular target: T2, human cloned 5-HT2B receptors; assay: Human cloned 5-HT2B receptor binding assay ([3H]LSD); settings: membranes of CHO-K1 cells expressing cloned 5-HT2B receptor, [3H]LSD 1 nM; read-out: 5-HT2B pKi (converted)
Method: Human Cloned 5-HT2B Receptor Binding Assay
The binding affinity of the compounds for human cloned 5-HT2B receptors was determined using the following assay.
CHO-K1 cells expressing cloned 5-HT2B receptor were maintained in Ultra-CHO medium containing 400 μg/ml of G418, 100 U/ml penicillin, 100 μg/ml streptomycin, 2.5 μg/ml fungizone and 1% foetal bovine serum, in 95/5% O2/CO2 at 37° C. The cells were harvested using 0.25% trypsin and were centrifuged at 800 rpm for 8 minutes. The cells were homogenised in 50 mM HEPES buffer containing 1 mM disodium EDTA and 1 mM PMSF at pH 7.4, using a Dounce homogeniser (20 strokes). The homogenate was centrifuged at 2280 rpm (1000 g) and 4° C. for 10 minutes, after which the supernatant was removed by decanting. The pellet was re-homogenised as above, and the resulting supernatant removed and combined with that already obtained. The supernatant solution was then centrifuged at 18300 rpm (40000 g) for 10 minutes at 4° C. using a Sorvall centrifuge. The supernatant was removed, and the pellet was re-suspended in 50 mM buffer at pH 7.4 using a Ultra-turrax T25 Polytron, before centrifugation again at 40000 g as above. This wash procedure was repeated, after which the membrane preparation was stored at a concentration of 1 mg/ml at −80° C. until use.
The membranes were thawed rapidly and diluted in assay buffer containing Tris-HCl (50 mM, pH 7.4), ascorbic acid (0.1%) and calcium chloride (4 mM). The membranes were homogenised to resuspend them, prior to adding 10 or 15 μg of membranes to assay wells containing [^3H]LSD (1 nM), assay buffer (50 mM Tris, 4 mM calcium chloride and 0.1% ascorbic acid) containing pargyline (10 μM), and the test compounds (1×10^−10 to 1×10^−4 M). Non specific binding was determined in the presence of 100 μM 5-HT. After 30 minutes incubation at 37° C., the assay mixture was filtered through a combination of GF-C and GF-B filters, pre-soaked in 1% polyethyleneimine, using a Brandel cell harvester, and were washed three times using 50 mM Tris-HCl. Radioactivity retained on the filters was determined by liquid scintillation counting. For each test compound, the concentration that inhibited binding of [^3H)LSD by 50% was determined using curve fitting software (Prism). Kd values (concentration of LSD required to occupy 50% of the receptor binding sites at equilibrium) determined from saturation binding studies were then used to calculate inhibition dissociation constants (Ki) using the following equation: [formula]
This approach follows that set out in Kenakin, T. P. Pharmacologic analysis of drug-receptor interaction. Raven Press, New York, 2nd Edition, which is incorporated herein by reference.

[4] = molecular target: T3, cloned human 5-HT2C receptor (Homo sapiens, UniProt P28335); assay: Human 5-HT2C receptor binding assay ([3H]mesulergine); settings: membranes of CHO-K1 cells expressing cloned human 5-HT2C receptor, [3H]mesulergine 1 nM; read-out: 5-HT2C pKi (converted)
T3 construct: purchased Euroscreen; host or cells: CHO-K1
T3 sequence (P28335 33-458): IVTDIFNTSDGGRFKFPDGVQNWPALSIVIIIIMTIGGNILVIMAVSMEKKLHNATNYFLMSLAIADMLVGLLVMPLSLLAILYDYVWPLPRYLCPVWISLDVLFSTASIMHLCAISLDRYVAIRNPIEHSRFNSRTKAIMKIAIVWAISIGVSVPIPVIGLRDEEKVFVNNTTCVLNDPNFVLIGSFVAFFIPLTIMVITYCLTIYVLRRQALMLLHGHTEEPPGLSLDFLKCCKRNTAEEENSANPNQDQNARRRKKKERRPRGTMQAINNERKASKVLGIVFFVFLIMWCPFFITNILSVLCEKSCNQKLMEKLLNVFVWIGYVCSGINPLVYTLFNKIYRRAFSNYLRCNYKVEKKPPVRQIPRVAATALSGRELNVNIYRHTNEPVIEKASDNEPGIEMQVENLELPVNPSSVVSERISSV
Method: as §1, §2
Membrane preparations from CHO-K1 cells expressing the cloned human 5-HT2C receptor were obtained (Euroscreen). The membranes were thawed rapidly and diluted in assay buffer containing Tris-HCl (50 mM, pH 7.7), ascorbic acid (0.1%) and pargyline (10 μM). The membranes were resuspended by homogenisation, prior to adding 6 μg of membranes to assay wells containing [^3H] mesulergine (1 nM), assay buffer (50 mM Tris at pH 7.7 and 0.1% ascorbic acid) containing pargyline (10 μM), and test compounds (1×10^−10 to 1×10^−4M). Non specific binding was determined in the presence of 100 μM mianserin. After 30 minutes incubation at 37° C., the assay mixture was filtered through a combination of GF-C and GF-B filters, pre-soaked in 1% bovine serum albumin, using a Brandel cell harvester, and were washed three times using ice cold Tris-HCl buffer (50 mM). Radioactivity retained on the filters was determined by liquid scintillation counting. For each test compound, the concentration that inhibited binding of [^3H]mesulergine by 50% was determined using curve fitting software (Prism). Kd values (concentration of mesulergine required to occupy 50% of the receptor binding sites at equlibrium) determined from saturation binding studies were then used to calculate inhibition dissociation constants (Ki) using the following equation: [formula]

T1 sequence (P28223 whole entry): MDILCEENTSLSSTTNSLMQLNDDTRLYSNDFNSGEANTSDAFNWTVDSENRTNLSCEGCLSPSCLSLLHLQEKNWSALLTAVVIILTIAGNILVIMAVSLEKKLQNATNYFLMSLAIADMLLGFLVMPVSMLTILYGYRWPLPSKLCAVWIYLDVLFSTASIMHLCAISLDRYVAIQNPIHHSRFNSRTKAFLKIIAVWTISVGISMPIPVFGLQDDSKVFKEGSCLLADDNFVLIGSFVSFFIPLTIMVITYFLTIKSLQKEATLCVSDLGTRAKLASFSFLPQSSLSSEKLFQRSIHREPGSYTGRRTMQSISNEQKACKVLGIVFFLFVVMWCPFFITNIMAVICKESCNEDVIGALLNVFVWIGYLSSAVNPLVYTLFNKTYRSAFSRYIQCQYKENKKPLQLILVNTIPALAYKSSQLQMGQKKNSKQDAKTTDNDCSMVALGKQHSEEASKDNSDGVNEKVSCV

Row | Ki [1] [nM] | IC50 [2] [nM] | Ki [3] [nM] | Ki [4] [nM] | SMILES
1 | > 10000 | < 1000 | < 1000 | > 1000 | Cc1sc(N)nc1-c1cccc2ccccc12 [Compound 1, 2-amino-5-methyl-4-(naphth-1-yl)thiazole]
2 | > 1000 | < 100 | < 100 | > 1000 | CC(C)c1sc(N)nc1-c1cccc2ccccc12 [Compound 2, 2-amino-5-isopropyl-4-(naphth-1-yl)thiazole]
3 | > 10000 | < 10000 | < 10000 | > 10000 | Nc1nc(-c2ccc3ccccc3c2)cs1 [Compound 4, 2-amino-4-(naphth-2-yl)thiazole]

Row | SMILES | Ki [1] [nM] | IC50 [2] [nM] | Ki [3] [nM] | Ki [4] [nM]
4 | Nc1nc(-c2cccc3ccccc23)cs1 [Compound 3, 2-amino-4-(naphth-1-yl)thiazole] | > 1000 | < 1000 | < 1000 | > 1000
